Biological target: T1, Human MTHFD2 (Homo sapiens, UniProt P13995)
T1 construct: residues 36-350 in Uniport ID P13995; His6 (N); made in house; host or cells: E. coli
T1 sequence (P13995 36-350): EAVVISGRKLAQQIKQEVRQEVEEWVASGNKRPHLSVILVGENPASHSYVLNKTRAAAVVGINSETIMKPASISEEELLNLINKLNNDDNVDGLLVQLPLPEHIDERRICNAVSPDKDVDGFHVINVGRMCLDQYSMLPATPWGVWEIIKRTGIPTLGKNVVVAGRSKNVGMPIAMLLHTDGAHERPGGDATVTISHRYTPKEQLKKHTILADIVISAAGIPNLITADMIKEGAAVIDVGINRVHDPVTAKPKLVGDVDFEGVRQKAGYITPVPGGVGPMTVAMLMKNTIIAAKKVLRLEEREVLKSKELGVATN
Assay: MTHFD2 Activity Assay (dehydrogenase activity, diaphorase/resazurin coupled fluorescence)
Format: biochemical
Conditions: inhibitory activity (IC50 and/or binding constant); 0.2 nM MTHFD2, 11 concentrations
In short: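 His6-tagged MTHFD2 (res. 36-350), E. coli-expressed, at 0.2 nM preincubated with compound 15 min in Hepes pH 8.0/MgCl2/KH2PO4 buffer; 70 μM CH2-THF, 1 mM NAD+ added with resazurin/diaphorase, 30 min, EDTA stop. Resorufin fluorescence (ex 525/em 598); IC50 from 11-point 4-parameter fit.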

Row | IC50 | Compound
1 | 5 to 10 µM | C[C@@H](O)CNc1nc2c(c(=O)n(Cc3ccc(C(F)(F)F)cc3)c(=O)n2C)n1C [Example 57, 8-{[(2R)-2-hydroxypropyl]amino}-3,7-dimethyl-1-{[4-(trifluoromethyl)phenyl]methyl}-2,3,6,7-tetrahydro-1H-purine-2,6-dione]
2 | 0.01 to 1 µM | Cn1c(C(N)Cc2ccccc2)nc2c1c(=O)n(Cc1cc3c(Cl)cccc3[nH]1)c(=O)n2C (centres unmarked) [Example 450, 8-(1-amino-2-phenylethyl)-1-((4-chloro-1H-indol-2-yl)methyl)-3,7-dimethyl-1H-purine-2,6(3H,7H)-dione]
3 | 0.01 to 1 µM | Cn1c(N[C@H]2CCCC[C@@H]2O)nc2c1c(=O)n(Cc1ccc(Cl)c(Cl)c1)c(=O)n2C (racemic) [Example 91, (±)-1-[(3,4-dichlorophenyl)methyl]-8-{[(trans)-2-hydroxycyclohexyl]amino}-3,7-dimethyl-2,3,6,7-tetrahydro-1H-purine-2,6-dione±]
4 | 0.01 to 1 µM | Cn1c(NC2CCOCC2)nc2c1c(=O)n(Cc1ccc(Cl)c(Cl)c1)c(=O)n2C [Example 48, 1-[(3,4-dichlorophenyl)methyl]-3,7-dimethyl-8-[(oxan-4-yl)amino]-2,3,6,7-tetrahydro-1H-purine-2,6-dione]
5 | 1 to 5 µM | Cn1cnc2c1c(=O)n(Cc1cc3cc(Cl)ccc3n1C)c(=O)n2C [Example 242, 1-((5-chloro-1-methyl-1H-indol-2-yl)methyl)-3,7-dimethyl-1H-purine-2,6(3H,7H)-dione]
6 | 0.01 to 1 µM | Cn1c(N[C@H]2CC[C@H](C(=O)O)CC2)nc2c1c(=O)n(Cc1ccc(Cl)c(Cl)c1)c(=O)n2C [Example 272, (±)-trans-4-[[1-[(3,4-dichlorophenyl)methyl]-3,7-dimethyl-2,6-dioxo-purin-8-yl]amino]cyclohexanecarboxylic acid]
7 | 0.01 to 1 µM | Cn1c(Nc2ccc(S(C)(=O)=O)cc2)nc2c1c(=O)n(Cc1cc3c(Cl)cccc3[nH]1)c(=O)n2C [Example 367, 1-[(4-chloro-1H-indol-2-yl)methyl]-3,7-dimethyl-8-(4-methylsulfonylanilino)purine-2,6-dione]
8 | 0.01 to 1 µM | Cn1c(Nc2ccncc2)nc2c1c(=O)n(Cc1cc3c(Cl)ccc(Cl)c3[nH]1)c(=O)n2C [Example 477, 1-((4,7-dichloro-1H-indol-2-yl)methyl)-3,7-dimethyl-8-(pyridin-4-ylamino)-1H-purine-2,6(3H,7H)-dione]
9 | 0.01 to 1 µM | COc1ccc(Nc2nc3c(c(=O)n(Cc4cc5c(Cl)cccc5[nH]4)c(=O)n3C)n2C)cn1 [Example 380, 1-((4-chloro-1H-indol-2-yl)methyl)-8-(6-methoxypyridin-3-ylamino)-3,7-dimethyl-1H-purine-2,6(3H,7H)-dione]
10 | 0.01 to 1 µM | Cn1c(N[C@@H]2CC[C@H](C(=O)O)C2)nc2c1c(=O)n(Cc1ccc(Cl)c(Cl)c1)c(=O)n2C [Example 50, (1S,3R)-3-({1-[(3,4-dichlorophenyl)methyl]-3,7-dimethyl-2,6-dioxo-2,3,6,7-tetrahydro-1H-purin-8-yl}amino)cyclopentane-1-carboxylic acid]
11 | 0.01 to 1 µM | Cn1c(Nc2ccnc([C@H]3C[C@@H]3C(=O)O)c2)nc2c1c(=O)n(Cc1cc3c(Cl)cccc3[nH]1)c(=O)n2C (racemic) [Example 321, (±)-trans-2-(4-((1-((4-chloro-1H-indol-2-yl)methyl)-3,7-dimethyl-2,6-dioxo-2,3,6,7-tetrahydro-1H-purin-8-yl)amino)pyridin-2-yl)cyclopropanecarboxylic acid]
12 | 0.01 to 1 µM | Cn1c(Nc2ccnc(CCC(=O)N3CCNCC3)n2)nc2c1c(=O)n(Cc1cc3c(Cl)cccc3[nH]1)c(=O)n2C [Example 428, 1-((4-chloro-1H-indol-2-yl)methyl)-3,7-dimethyl-8-(2-(3-oxo-3-(piperazin-1-yl)propyl)pyrimidin-4-ylamino)-1H-purine-2,6(3H,7H)-dione]
13 | 0.01 to 1 µM | CNC(=O)CCc1nccc(Nc2nc3c(c(=O)n(Cc4cc5c(Cl)cccc5[nH]4)c(=O)n3C)n2C)n1 [Example 415, 3-(4-(1-((4-chloro-1H-indol-2-yl)methyl)-3,7-dimethyl-2,6-dioxo-2,3,6,7-tetrahydro-1H-purin-8-ylamino)pyrimidin-2-yl)-N-methylpropanamide]
14 | 0.01 to 1 µM | Cn1c(Nc2ccncc2)nc2c1c(=O)n(Cc1cc3ccccc3[nH]1)c(=O)n2C [Example 174, 1-((1H-indol-2-yl)methyl)-3,7-dimethyl-8-(pyridin-4-ylamino)-1H-purine-2,6(3H,7H)-dione]
15 | 0.01 to 1 µM | Cn1c(N[C@H]2CC[C@@H](O)C2)nc2c1c(=O)n(Cc1ccc(Cl)c(Cl)c1)c(=O)n2C (single isomer, unassigned) [Example 71, 1-(3,4-dichlorobenzyl)-8-((1S,3R)-3-hydroxycyclopentylamino)-3,7-dimethyl-1H-purine-2,6(3H,7H)-dione or 1-(3,4-dichlorobenzyl)-8-((1R,3S)-3-hydroxycyclopentylamino)-3,7-dimethyl-1H-purine-2,6(3H,7H)-dione]
16 | 0.01 to 1 µM | COc1ccc2[nH]c(Cn3c(=O)c4c(nc(Nc5ccncc5)n4C)n(C)c3=O)cc2c1 [Example 183, 1-((5-methoxy-1H-indol-2-yl)methyl)-3,7-dimethyl-8-(pyridin-4-ylamino)-1H-purine-2,6(3H,7H)-dione]
17 | 1 to 5 µM | Cn1c(Nc2ccnc(C(=O)O)c2)nc2c1c(=O)n(Cc1ccc(Cl)c(Cl)c1)c(=O)n2C [Example 303, 4-(1-(3,4-dichlorobenzyl)-3,7-dimethyl-2,6-dioxo-2,3,6,7-tetrahydro-1H-purin-8-ylamino)picolinic acid]
18 | 0.01 to 1 µM | Cn1c(N[C@H]2CCOC2)nc2c1c(=O)n(Cc1ccc(Cl)c(Cl)c1)c(=O)n2C [Example 49, 1-[(3,4-dichlorophenyl)methyl]-3,7-dimethyl-8-{[(3S)-oxolan-3-yl]amino}-2,3,6,7-tetrahydro-1H-purine-2,6-dione]
19 | 0.01 to 1 µM | Cn1c(Nc2ccc(CO)cc2)nc2c1c(=O)n(Cc1cc3c(Cl)cccc3[nH]1)c(=O)n2C [Example 432, 1-((4-chloro-1H-indol-2-yl)methyl)-8-(4-(hydroxymethyl)phenylamino)-3,7-dimethyl-1H-purine-2,6(3H,7H)-dione]
20 | 0.01 to 1 µM | Cn1c(NC2CCCC(O)C2)nc2c1c(=O)n(Cc1ccc(Cl)c(Cl)c1)c(=O)n2C (centres unmarked) [Example 33, 1-[(3,4-dichlorophenyl)methyl]-8-[(3-hydroxycyclohexyl)amino]-3,7-dimethyl-2,3,6,7-tetrahydro-1H-purine-2,6-dione]
21 | 0.01 to 1 µM | Cn1c(Nc2cccc([C@@H]3C[C@H]3C(=O)O)n2)nc2c1c(=O)n(Cc1cc3c(Cl)cccc3[nH]1)c(=O)n2C (racemic) [Example 315, (±)-trans-2-[6-[[1-[(4-chloro-1H-indol-2-yl)methyl]-3,7-dimethyl-2,6-dioxo-purin-8-yl]amino]-2-pyridyl]cyclopropanecarboxylic acid]
22 | 0.01 to 1 µM | Cn1c(NC(=O)C(F)(F)F)nc2c1c(=O)n(Cc1cc3c(Cl)cccc3[nH]1)c(=O)n2C [Example 422, N-[1-[(4-chloro-1H-indol-2-yl)methyl]-3,7-dimethyl-2,6-dioxo-purin-8-yl]-2,2,2-trifluoro-acetamide]
23 | 0.01 to 1 µM | Cn1c(Nc2ccc(CC(=O)O)cc2)nc2c1c(=O)n(Cc1cc3c(Cl)cccc3[nH]1)c(=O)n2C [Example 345, 2-[4-[[1-[(4-chloro-1H-indol-2-yl)methyl]-3,7-dimethyl-2,6-dioxo-purin-8-yl]amino]phenyl]acetic acid]
24 | 5 to 10 µM | Cn1c(Nc2ccnc([C@@H]3C[C@H]3CO)c2)nc2c1c(=O)n(Cc1ccc(Cl)c(Cl)c1)c(=O)n2C (single isomer, unassigned) [Example 338, 1-(3,4-dichlorobenzyl)-8-((2((1R,2R)-2-(hydroxymethyl)cyclopropyl)pyridin-4-yl)amino)-3,7-dimethyl-1H-purine-2,6(3H,7H)-dione or 1-(3,4-dichlorobenzyl)-8-((2-((1S,2S)-2-(hydroxymethyl)cyclopropyl)pyridin-4-yl)amino)-3,7-dimethyl-1H-purine-2,6(3H,7H)-dione]
25 | 0.01 to 1 µM | Cc1c(Cn2c(=O)c3c(nc(Nc4ccncc4)n3C)n(C)c2=O)[nH]c2ccccc12 [Example 340, 3,7-dimethyl-1-((3-methyl-1H-indol-2-yl)methyl)-8-(pyridin-4-ylamino)-1H-purine-2,6(3H,7H)-dione]
26 | 1 to 5 µM | Cn1c(=O)n(Cc2ccc(Cl)c(Cl)c2)c(=O)c2[nH]c(NCCCO)nc21 [Example 90, 1-[(3,4-dichlorophenyl)methyl]-8-[(3-hydroxypropyl)amino]-3-methyl-2,3,6,7-tetrahydro-1H-purine-2,6-dione]
27 | 5 to 10 µM | C[C@H](O)CNc1nc2c(c(=O)n(Cc3ccc(Cl)cc3)c(=O)n2C)n1C [Example 18, 1-[(4-chlorophenyl)methyl]-8-{[(2S)-2-hydroxypropyl]amino}-3,7-dimethyl-2,3,6,7-tetrahydro-1H-purine-2,6-dione]
28 | 1 to 5 µM | Cn1c(NCCO)nc2c1c(=O)n(Cc1ccc(Cl)c(Cl)c1)c(=O)n2C [Example 1, 1-(3,4-dichlorobenzyl)-8-((2-hydroxyethyl)amino)-3,7-dimethyl-1H-purine-2,6(3H,7H)-dione]
29 | 5 to 10 µM | Cn1c(Cn2c(=O)c3c(nc(Nc4cccnn4)n3C)n(C)c2=O)cc2cc(Cl)ccc21 [Example 203, 1-((5-chloro-1-methyl-1H-indol-2-yl)methyl)-3,7-dimethyl-8-(pyridazin-3-ylamino)-1H-purine-2,6(3H,7H)-dione]
